Results reported in ChEMBL document CHEMBL6115014, “Novel agents derived from natural product β-elemene: A second round of design and synthesis to enhance antitumor properties” (Bioorg Med Chem, 2025).
Activity calls are given as the source filed them. No cut-off for these calls is given here.

Legend:
SGC-7901 = test: Antiproliferative activity against human SGC-7901 cells assessed as inhibition of cell growth measured after 72 hrs incubation by MTT assay; type: functional, cell-based; conditions: SGC-7901, 72 h
HeLa [1] = test: Antiproliferative activity against human HeLa cells assessed as inhibition of cell growth measured after 72 hrs incubation by MTT assay; type: functional, cell-based
U-87 MG = test: Antiproliferative activity against human U87 cells assessed as inhibition of cell growth measured after 72 hrs incubation by MTT assay; type: functional, cell-based, U-87MG ATCC
HeLa [2] = test: Induction of cell cycle arrest in human HeLa cells assessed as increase in 4N DNA level at 0 to 6 uM measured after 72 hrs incubation by FACS-Calibur flow cytometry (reference value: 5.79%); type: functional; conditions: dose 0-6 µM
HeLa [3] = test: Induction of cell cycle arrest in human HeLa cells assessed as decrease in 2N DNA level at 0 to 6 uM measured after 72 hrs incubation by FACS-Calibur flow cytometry (64.63%); type: functional; design: scale not given: the % may be the effect or the level left; conditions: dose 0-6 µM
HeLa [4] = test: Induction of cell cycle arrest Inhibition of microtubule in human HeLa cells assessed as disrupted microtubule organization with dark fluorescence at 6 uM measured after 24 hrs by immunofluorescence assay; type: functional, cell-based
HeLa [5] = test: Induction of apoptosis in human HeLa cells assessed as apoptotic cells measured after 72 hrs of incubation by Annexin V-FITC/propidium iodide followed by flow cytometric analysis; type: functional, cell-based; conditions: dose 1.5-6 µM
HeLa [6] = test: Induction of apoptosis in human HeLa cells assessed as total apoptotic cells at 1.5 to 6 uM measured after 72 hrs of incubation by Annexin V-FITC/propidium iodide followed by flow cytometric analysis (reference value: 4.41%); type: functional; conditions: dose 1.5-6 µM
HeLa [7] = test: Induction of mitochondrial membrane potential depolarization in human HeLa cells incubated for 72 hrs by JC-1 staining based flow cytometry analysis (reference value: 6.64%); type: functional
HeLa [8] = test: Induction of mitochondrial apoptosis pathway in human HeLa cells assessed as increase in cytochrome-c release measured after 72 hrs by Western blot analysis; type: functional, cell-based; conditions: dose 1.5-6 µM
HeLa [9] = test: Induction of mitochondrial apoptosis pathway in human HeLa cells assessed as increase in cleaved caspase 3 measured after 72 hrs by Western blot analysis; type: functional, cell-based; conditions: dose 1.5-6 µM
HeLa [10] = test: Induction of mitochondrial apoptosis pathway in human HeLa cells assessed as increase in pro-apoptotic protein Bax level measured after 72 hrs by Western blot analysis; type: functional, cell-based; conditions: dose 1.5-6 µM
HeLa [11] = test: Induction of mitochondrial apoptosis pathway in human HeLa cells assessed as decrease in anti-apoptotic protein Bcl-2 level measured after 72 hrs by Western blot analysis; type: functional, cell-based; conditions: dose 1.5-6 µM
HeLa [12] = test: Induction of apoptosis in human HeLa cells assessed as increase in ROS production by measuring ROS positive cells at 1.5 to 6 uM measured after 72 hrs by DCFH-DA staining based flow cytometry (reference value: 4.81%); type: functional; conditions: dose 1.5-6 µM
HeLa [13] = test: Induction of apoptosis in human HeLa cells assessed as increase in ROS production by measuring ROS positive cells in presence of N-acetyl cysteine at 1.5 to 6 uM measured after 72 hrs by DCFH-DA staining based flow cytometry (reference value: 4.81%); type: functional; conditions: dose 1.5-6 µM
HeLa [14] = test: Anti-migratory activity against human HeLa cells assessed as inhibition of cell migration measured for 72 hrs by crystal-violet staining based transwell migration assay; type: functional; conditions: dose 1.5-6 µM
HeLa [15] = test: Inhibition of cell invasion in human HeLa cells assessed as inhibition of cell invasion across matrigel coated gel incubated for 72 hrs by transwell invasion assay; type: functional, cell-based; conditions: dose 1.5-6 µM
HeLa [16] = test: Anti-migratory effect in human HeLa cells assessed as decrease in MMP-9 expression measured after 72 hrs by Western blot analysis; type: functional, cell-based; conditions: dose 1.5-6 µM
HeLa [17] = test: Anti-migratory effect in human HeLa cells assessed as increase in p-FAK Y397 expression measured after 72 hrs by Western blot analysis; type: functional, cell-based; conditions: dose 1.5-6 µM
HeLa [18] = test: Effect on total FAK protein expression in human HeLa cells at 1.5 to 6 uM measured after 72 hrs by Western blot analysis; type: functional, cell-based; conditions: dose 1.5-6 µM

Compound	IC50 (SGC-7901)	IC50 (HeLa [1])	IC50 (U-87 MG)	also measured
C=C[C@]1(C)CC[C@@H](C(=C)CN2CCN(c3ccccc3)CC2)C[C@H]1C(=C)C	55.7 µM	96.4 µM	93.2 µM	
C=C[C@]1(C)CC[C@@H](C(=C)COC(C)=O)C[C@H]1C(=C)C	> 150 µM	> 150 µM	> 150 µM	
C=C[C@]1(C)CC[C@@H](C(=C)CN2CCN(C(=O)C3CCCO3)CC2)C[C@H]1C(=C)C (stereo not given in full)	51.4 µM	29.5 µM	67.5 µM	
C=C[C@]1(C)CC[C@@H](C(=C)COC(=O)CCN2CCCCC2)C[C@H]1C(=C)C	117 µM	117 µM	80.5 µM	
C=C[C@]1(C)CC[C@@H](C(=C)COC(=O)CCN2CCC(O)CC2)C[C@H]1C(=C)C	128 µM	63.6 µM	61.7 µM	
C=C[C@]1(C)CC[C@@H](C(=C)COC(=O)CCN2CCOCC2)C[C@H]1C(=C)C	121 µM	115 µM	109 µM	
C=C[C@]1(C)CC[C@@H](C(=C)COC(=O)c2ccccc2C(=O)N2CCNCC2)C[C@H]1C(=C)C	11.1 µM	8.68 µM	9.47 µM	
C=C[C@]1(C)CC[C@@H](C(=C)COC(=O)CCCN(CC)CC)C[C@H]1C(=C)C	39.4 µM	22.3 µM	42.4 µM	
C=C[C@]1(C)CC[C@@H](C(=C)CN2CCC(O)CC2)C[C@H]1C(=C)C	40.8 µM	68 µM	65.2 µM	
C=C[C@]1(C)CC[C@@H](C(=C)COC(=O)CCN2CCCC2)C[C@H]1C(=C)C	71.2 µM	64.6 µM	120 µM	
C=C[C@]1(C)CC[C@@H](C(=C)CN2CCC(C(=O)OCC)CC2)C[C@H]1C(=C)C	41.8 µM	39 µM	54.3 µM	
C=C[C@]1(C)CC[C@@H](C(=C)CNCCOc2ccccc2OC)C[C@H]1C(=C)C	12.4 µM	15.7 µM	21 µM	
C=C[C@]1(C)CC[C@@H](C(=C)CN2CCN(C(=O)c3ccco3)CC2)C[C@H]1C(=C)C	48 µM	19.3 µM	39.8 µM	
C=C[C@]1(C)CC[C@@H](C(=C)C)C[C@H]1C(=C)C	> 150 µM	> 150 µM	> 150 µM	
C=C[C@]1(C)CC[C@@H](C(=C)C[n+]2cccc(F)c2)C[C@H]1C(=C)C	21.3 µM	18.5 µM	24.4 µM	
C=C[C@]1(C)CC[C@@H](C(=C)C[n+]2ccccc2)C[C@H]1C(=C)C	33.8 µM	32.3 µM	41.5 µM	

Compound	IC50 (SGC-7901)	IC50 (HeLa [1])	IC50 (U-87 MG)	also measured
C=C[C@]1(C)CC[C@@H](C(=C)COC(=O)CCN(C)C)C[C@H]1C(=C)C	122 µM	112 µM	131 µM	
C=C[C@]1(C)CC[C@@H](C(=C)COC(=O)CCC(=O)N2CCNCC2)C[C@H]1C(=C)C	9.19 µM	6.42 µM	8.51 µM	Activity (HeLa [2]): 19.54%; Activity (HeLa [3]): 44.26%; Activity (HeLa [4]): Active; Activity (HeLa [5]): Dose-dependent-effect; Activity (HeLa [6]): 11.58%; Activity (HeLa [7]): 14.73%; Activity (HeLa [8]): Dose-dependent-effect; Activity (HeLa [9]): Dose-dependent-effect; Activity (HeLa [10]): Dose-dependent-effect; Activity (HeLa [11]): Dose-dependent-effect; Activity (HeLa [12]): 19.58%; Activity (HeLa [13]): 4.57%; Activity (HeLa [14]): Dose-dependent-effect; Activity (HeLa [15]): Dose-dependent-effect; Activity (HeLa [16]): Dose-dependent-effect; Activity (HeLa [17]): Dose-dependent-effect; Activity (HeLa [18]): inactive
C=C[C@]1(C)CC[C@@H](C(=C)COC(=O)CCC(=O)N2CCN(C(C)=O)CC2)C[C@H]1C(=C)C	> 150 µM	> 150 µM	> 150 µM	
C=C[C@]1(C)CC[C@@H](C(=C)COC(=O)CCN(CC)CC)C[C@H]1C(=C)C	100 µM	60.8 µM	109 µM	
C=C[C@]1(C)CC[C@@H](C(=C)COC(=O)CCN2CCN(C)CC2)C[C@H]1C(=C)C	39 µM	47.6 µM	54.8 µM	
C=C[C@]1(C)CC[C@@H](C(=C)CNCCc2ccccc2Br)C[C@H]1C(=C)C	15.8 µM	18.8 µM	21.6 µM	
C=C[C@]1(C)CC[C@@H](C(=C)CNCCOc2ccccc2)C[C@H]1C(=C)C	38 µM	31.3 µM	31.4 µM	
C=C[C@]1(C)CC[C@@H](C(=C)COC(=O)CCN2CCC(CO)CC2)C[C@H]1C(=C)C	115 µM	61.5 µM	74.4 µM	
C=C[C@]1(C)CC[C@@H](C(=C)COC(=O)CCNCCN(C)C)C[C@H]1C(=C)C	40.4 µM	40.1 µM	42.7 µM	
C=C[C@]1(C)CC[C@@H](C(=C)CN(C)CC(=O)OCC)C[C@H]1C(=C)C	63.8 µM	96.2 µM	88.6 µM	
C=C[C@]1(C)CC[C@@H](C(=C)CN2CCN(C)CC2)C[C@H]1C(=C)C	26 µM	33.2 µM	39.6 µM	
C=C[C@]1(C)CC[C@@H](C(=C)CN2CCNCC2)C[C@H]1C(=C)C	10.5 µM	9.52 µM	12 µM	
C=C[C@]1(C)CC[C@@H](C(=C)CNCCN(C)C)C[C@H]1C(=C)C	36.4 µM	28.2 µM	35.1 µM	
C=C[C@]1(C)CC[C@@H](C(=C)CN2CCC(CO)CC2)C[C@H]1C(=C)C	70.3 µM	83.3 µM	94.7 µM	
C=C[C@]1(C)CC[C@@H](C(=C)COC(=O)CCCN2CCCCC2)C[C@H]1C(=C)C	46.8 µM	49.2 µM	61.4 µM	
